Data reported in ChEMBL document CHEMBL5523703, “Modulators for palmitoylation of proteins and small molecules” (Eur J Med Chem, 2024).
Each block holds one compound with its values, some of them ahead of it.

What was measured:
[1] = molecular target: Serine palmitoyltransferase 3 (Homo sapiens, UniProt Q9NUV7); assay: Inhibition of SPTLC3 (unknown origin)
Homo sapiens = organism: Homo sapiens; assay: Inhibition of ZDHHC (unknown origin) at 20 uM relative to control
[2] = Inhibition of SPT (unknown origin); design: species or system Homo sapiens
[3] = molecular target: Acyl-protein thioesterase 2 (Homo sapiens, UniProt O95372); assay: Inhibition of APT2 (unknown origin)
Chain of Acyl-protein thioesterase 2 (O95372 whole entry): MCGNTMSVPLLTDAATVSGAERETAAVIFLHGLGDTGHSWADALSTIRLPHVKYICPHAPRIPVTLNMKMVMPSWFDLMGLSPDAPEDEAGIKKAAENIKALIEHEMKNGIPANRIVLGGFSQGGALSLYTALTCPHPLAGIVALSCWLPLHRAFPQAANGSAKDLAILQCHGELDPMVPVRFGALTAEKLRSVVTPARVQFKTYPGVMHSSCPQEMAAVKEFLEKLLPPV

cells = conditions: Homo sapiens, HEK-293T, 24 h
[4] = Inhibition of Wnt/beta-catenin signalling in HEK293 cells assessed as reduction in luciferase activity incubated for 24 hrs by TOPFlash luciferase reporter assay; type: cell-based; conditions: Homo sapiens, HEK293, 24 h
[5] = molecular target: Palmitoyltransferase ZDHHC9 (Homo sapiens, UniProt Q9Y397); assay: Binding affinity to ZDHHC9 (unknown origin) assessed as inhibition constant
Chain of Palmitoyltransferase ZDHHC9 (Q9Y397 whole entry): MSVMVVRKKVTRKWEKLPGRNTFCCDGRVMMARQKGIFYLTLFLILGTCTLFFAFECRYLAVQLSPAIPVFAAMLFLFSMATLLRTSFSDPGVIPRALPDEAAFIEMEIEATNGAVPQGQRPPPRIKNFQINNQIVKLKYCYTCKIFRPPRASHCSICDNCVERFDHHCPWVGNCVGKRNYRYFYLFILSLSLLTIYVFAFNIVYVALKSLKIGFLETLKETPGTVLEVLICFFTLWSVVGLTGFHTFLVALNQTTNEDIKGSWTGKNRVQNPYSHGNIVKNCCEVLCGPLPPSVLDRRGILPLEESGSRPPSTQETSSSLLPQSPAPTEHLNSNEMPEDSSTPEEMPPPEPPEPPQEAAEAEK

[6] = molecular target: T1, Palmitoyl-protein thioesterase ABHD10, mitochondrial (Homo sapiens, UniProt Q9NUJ1); assay: Inhibition of ABHD10 (unknown origin)
T1 sequence (Q9NUJ1 whole entry): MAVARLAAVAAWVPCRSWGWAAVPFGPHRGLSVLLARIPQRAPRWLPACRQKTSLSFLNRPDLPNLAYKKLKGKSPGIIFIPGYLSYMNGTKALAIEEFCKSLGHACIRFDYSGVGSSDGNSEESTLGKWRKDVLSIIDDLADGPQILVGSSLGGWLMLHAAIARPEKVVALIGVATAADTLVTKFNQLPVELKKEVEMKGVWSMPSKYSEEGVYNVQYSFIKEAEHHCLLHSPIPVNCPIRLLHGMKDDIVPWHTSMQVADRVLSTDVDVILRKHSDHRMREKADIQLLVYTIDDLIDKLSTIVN

[7] = molecular target: T2, Membrane-bound ghrelin O-acyltransferase MBOAT4 (Mus musculus, UniProt P0C7A3); assay: Inhibition of N-terminal His-tagged mouse GOAT expressed in baculovirus infected insect cells
T2 sequence (P0C7A3 whole entry): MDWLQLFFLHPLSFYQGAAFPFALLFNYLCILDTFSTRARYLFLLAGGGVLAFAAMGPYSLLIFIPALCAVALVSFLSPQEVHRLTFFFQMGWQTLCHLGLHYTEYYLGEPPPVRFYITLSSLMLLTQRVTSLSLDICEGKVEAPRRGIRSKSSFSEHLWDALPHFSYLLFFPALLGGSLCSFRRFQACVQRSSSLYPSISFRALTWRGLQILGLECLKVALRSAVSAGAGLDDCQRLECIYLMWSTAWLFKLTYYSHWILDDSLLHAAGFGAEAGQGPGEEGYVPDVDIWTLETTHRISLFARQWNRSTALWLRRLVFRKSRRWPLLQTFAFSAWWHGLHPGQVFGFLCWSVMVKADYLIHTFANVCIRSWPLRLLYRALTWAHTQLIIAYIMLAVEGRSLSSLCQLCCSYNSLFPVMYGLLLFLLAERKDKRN

[8] = molecular target: Palmitoyltransferase ZDHHC7 (Homo sapiens, UniProt Q9NXF8); assay: Inhibition of ZDHHC7 (unknown origin)
Chain of Palmitoyltransferase ZDHHC7 (Q9NXF8 whole entry): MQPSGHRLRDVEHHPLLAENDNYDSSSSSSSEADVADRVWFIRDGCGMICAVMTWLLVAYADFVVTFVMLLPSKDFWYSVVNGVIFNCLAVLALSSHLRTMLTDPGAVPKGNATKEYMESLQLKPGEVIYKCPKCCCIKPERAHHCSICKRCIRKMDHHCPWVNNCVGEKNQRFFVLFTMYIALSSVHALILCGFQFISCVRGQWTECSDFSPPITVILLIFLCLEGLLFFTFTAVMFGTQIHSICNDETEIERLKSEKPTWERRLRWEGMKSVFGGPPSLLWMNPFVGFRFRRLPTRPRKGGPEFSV

[9] = molecular target: T3, Membrane-bound ghrelin O-acyltransferase MBOAT4 (Homo sapiens, UniProt Q96T53); assay: Inhibition of GOAT (unknown origin)
T3 sequence (Q96T53 whole entry): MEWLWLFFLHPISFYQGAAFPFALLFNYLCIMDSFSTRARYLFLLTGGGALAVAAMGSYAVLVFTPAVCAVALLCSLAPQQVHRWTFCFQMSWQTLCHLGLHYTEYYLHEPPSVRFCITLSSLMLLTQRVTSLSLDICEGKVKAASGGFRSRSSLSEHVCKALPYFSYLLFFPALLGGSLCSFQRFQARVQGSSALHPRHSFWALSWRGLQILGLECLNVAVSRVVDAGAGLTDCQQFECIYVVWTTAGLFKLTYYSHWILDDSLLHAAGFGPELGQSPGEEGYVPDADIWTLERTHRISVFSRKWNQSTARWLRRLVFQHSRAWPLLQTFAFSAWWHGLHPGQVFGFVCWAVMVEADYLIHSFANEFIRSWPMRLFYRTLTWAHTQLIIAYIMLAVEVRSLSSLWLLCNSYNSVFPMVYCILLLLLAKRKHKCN

[10] = Inhibition of Wnt/beta-catenin signalling in Wnt3a stimulated HEK293 cells assessed as reduction in luciferase activity incubated for 24 hrs by TOPFlash luciferase reporter assay; type: cell-based; conditions: Homo sapiens, HEK293, 24 h
[11] = molecular target: T4, Phosphatidylserine lipase ABHD16A (Homo sapiens, UniProt O95870); assay: Inhibition of recombinant human ABHD16A expressed in HEK293T cells incubated for 1 hr by fluorescence based analysis; type: cell-based
T4 sequence (O95870 whole entry): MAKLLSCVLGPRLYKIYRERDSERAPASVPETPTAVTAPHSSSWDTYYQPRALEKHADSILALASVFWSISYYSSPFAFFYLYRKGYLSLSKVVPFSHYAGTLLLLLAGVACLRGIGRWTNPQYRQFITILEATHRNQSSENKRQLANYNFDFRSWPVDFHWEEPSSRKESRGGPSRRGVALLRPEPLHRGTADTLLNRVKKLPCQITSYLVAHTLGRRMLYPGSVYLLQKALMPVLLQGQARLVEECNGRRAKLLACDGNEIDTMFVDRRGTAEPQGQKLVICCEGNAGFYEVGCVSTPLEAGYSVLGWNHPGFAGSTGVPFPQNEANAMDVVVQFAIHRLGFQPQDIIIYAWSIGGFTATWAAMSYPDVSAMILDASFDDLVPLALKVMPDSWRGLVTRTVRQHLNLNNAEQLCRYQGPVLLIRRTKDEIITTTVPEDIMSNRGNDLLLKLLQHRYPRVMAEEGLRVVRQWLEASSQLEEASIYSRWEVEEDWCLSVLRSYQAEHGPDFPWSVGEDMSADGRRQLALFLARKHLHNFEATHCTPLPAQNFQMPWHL

[12] = molecular target: T5, Carnitine O-palmitoyltransferase 1, muscle isoform (Homo sapiens, UniProt Q92523); assay: Inhibition of CPT1B (unknown origin) in KB cells; type: cell-based
T5 sequence (Q92523 whole entry): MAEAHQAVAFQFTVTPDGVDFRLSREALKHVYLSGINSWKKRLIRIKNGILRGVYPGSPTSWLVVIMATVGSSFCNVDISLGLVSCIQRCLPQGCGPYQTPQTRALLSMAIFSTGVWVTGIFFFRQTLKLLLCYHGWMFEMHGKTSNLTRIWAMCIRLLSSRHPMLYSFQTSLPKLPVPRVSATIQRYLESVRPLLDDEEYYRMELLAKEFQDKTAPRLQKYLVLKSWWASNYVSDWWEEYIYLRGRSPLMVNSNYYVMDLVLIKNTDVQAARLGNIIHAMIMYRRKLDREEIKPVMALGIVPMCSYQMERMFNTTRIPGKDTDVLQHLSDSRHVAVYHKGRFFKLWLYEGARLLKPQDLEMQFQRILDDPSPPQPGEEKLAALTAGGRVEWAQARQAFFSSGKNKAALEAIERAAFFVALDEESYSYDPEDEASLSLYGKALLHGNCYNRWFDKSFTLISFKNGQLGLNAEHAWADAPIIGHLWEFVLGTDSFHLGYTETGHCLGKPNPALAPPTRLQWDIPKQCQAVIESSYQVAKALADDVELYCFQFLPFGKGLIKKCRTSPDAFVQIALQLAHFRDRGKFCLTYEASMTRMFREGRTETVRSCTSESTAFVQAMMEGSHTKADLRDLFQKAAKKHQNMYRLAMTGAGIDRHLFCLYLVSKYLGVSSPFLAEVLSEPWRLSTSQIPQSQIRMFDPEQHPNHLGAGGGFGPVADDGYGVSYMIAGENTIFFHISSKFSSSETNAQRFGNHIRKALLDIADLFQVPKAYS

Chain of Serine palmitoyltransferase 3 (Q9NUV7 whole entry): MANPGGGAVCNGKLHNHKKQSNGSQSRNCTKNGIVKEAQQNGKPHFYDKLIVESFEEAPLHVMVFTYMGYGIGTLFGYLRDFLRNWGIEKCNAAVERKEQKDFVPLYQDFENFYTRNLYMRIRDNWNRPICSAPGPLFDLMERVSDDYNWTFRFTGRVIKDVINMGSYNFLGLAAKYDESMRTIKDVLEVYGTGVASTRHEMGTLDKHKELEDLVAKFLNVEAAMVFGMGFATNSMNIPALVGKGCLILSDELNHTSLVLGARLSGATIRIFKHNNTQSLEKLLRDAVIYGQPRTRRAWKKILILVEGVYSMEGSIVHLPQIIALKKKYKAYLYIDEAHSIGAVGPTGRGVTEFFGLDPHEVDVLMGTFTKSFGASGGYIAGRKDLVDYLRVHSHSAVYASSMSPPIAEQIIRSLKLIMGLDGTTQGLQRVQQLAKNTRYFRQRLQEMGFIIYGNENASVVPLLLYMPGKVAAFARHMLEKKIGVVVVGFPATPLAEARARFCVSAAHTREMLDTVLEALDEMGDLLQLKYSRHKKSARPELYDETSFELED

IC50 [1]: 0.8 nM
Structure (SMILES): COc1ccc(C(=O)N2CC[C@H](NC(=O)c3ccccc3OC(F)(F)F)c3c2cnn3CCCCCNC(=O)CCC2=[N+]3C(=Cc4c(C)cc(C)n4[B-]3(F)F)C=C2)cc1OC

inhibition (Homo sapiens): 71.3%
Structure (SMILES): N#CCC(=O)NCCc1ccc(OC(=O)c2cccc(Oc3ccccc3)c2)cc1

IC50 [2]: 20 nM
Structure (SMILES): CCCCCC[C@@H](O)CCCCCC/C=C/[C@H](O)[C@@H](O)[C@H](O)[C@H](N)C(=O)O

IC50 [3]: 19.6 nM
Structure (SMILES): CCCCCCCCCC[C@@H]1C(=O)O[C@H]1CCc1ccc(OC)c(OC)c1 [PALMOSTATIN B]

IC50 (cells): 0.064 nM
Structure (SMILES): Cc1c(-c2ccnc(C(F)(F)F)c2)ncn1CC(=O)Nc1ccc(-c2cnccn2)cn1 [ZAMAPORVINT]

IC50 [4]: 10 nM
Structure (SMILES): CC(C)Cc1c(C#N)c(N)nc(SCC(=O)c2ccc(-c3ccccc3)cc2)c1C#N

Ki [5]: 72000 nM
Structure (SMILES): CC(C)Cc1ccc(C(C)CN2CCNC[C@@H]2CCCCN2CCN(CC(C)c3ccc(CC(C)C)cc3)[C@@H](Cc3ccc(O)cc3)C2)cc1 (some centres not stated)

IC50 [3]: 32.4 nM
Structure (SMILES): C#CCCCCCCCC[C@@H]1OC(=O)[C@H]1CCCCS(=O)(=O)CCCN(C)C

IC50 [6]: 30 nM
Structure (SMILES): CC[C@@]1(c2ccc(C)cc2)C(=O)N(C(=O)OC(C)C)N1C(=O)OC(C)C

IC50 [2]: 224 nM
Structure (SMILES): CCCCCC[C@@H](O)CCCCCCCC[C@@H](O)[C@H](N)C(=O)O

IC50 [7]: 7540 nM
Structure (SMILES): CCCCCCN(C(C)=O)C(C(=O)NCc1ccccc1)c1ccc2cc(O)ccc2c1 (configuration not stated)

IC50 [4]: 16 nM
Structure (SMILES): O=S(=O)(c1ccc2oc(-c3cccnc3)nc2c1)c1ccc2oc(-c3cccnc3)nc2c1

IC50 [8]: 38000 nM
Structure (SMILES): CCCCCCCCCCCCCCC(Br)C(=O)OC (configuration not stated)

IC50 (cells): 0.2 nM
Structure (SMILES): Cc1cc(-c2ncc(CC(=O)Nc3ccc(-c4cnccn4)cn3)cc2C)ccn1 [WNT-974]

IC50 [9]: 60 nM
Structure (SMILES): Cc1nc(N)c(CCC2CCN(C(=O)[C@H](C)NC(=O)c3ccnn3C)CC2)c(Cl)n1

IC50 [3]: 23.7 nM
Structure (SMILES): C#CCCCCCCCC[C@@H]1C(=O)O[C@H]1CCc1ccc(OC)c(OC)c1

IC50 [10]: 20 nM
Structure (SMILES): O=C(Cn1cc(I)c(=O)c(I)c1)Nc1ccc(-c2ccccc2)cn1

IC50 [10]: 0.5 nM
Structure (SMILES): C[C@H](C(=O)Nc1ccc(-c2ccsc2)cc1)n1cnc2c1c(=O)n(C)c(=O)n2C

IC50 [11]: 60 nM
Structure (SMILES): COc1nn(-c2cccc([N+](=O)[O-])c2)c(=O)o1

IC50 (cells): 2.9 nM
Structure (SMILES): Cn1c(=O)c2c(ncn2CC(=O)Nc2ccc(-c3ccccc3)nn2)n(C)c1=O [ETC-159]

IC50 [12]: 16000 nM
Structure (SMILES): O=C(O)C(=O)c1ccc(OCCOc2ccc3ccccc3c2)s1

IC50 [7]: 200 nM
Structure (SMILES): CCCCCCCC(=O)NC[C@H](NC(=O)[C@H](CO)NC(=O)CN)C(=O)N[C@@H](Cc1ccccc1)C(=O)N[C@@H](CC(C)C)C(=O)N[C@@H](CO)C(=O)N1CCC[C@H]1C(=O)N[C@@H](CCC(=O)O)C(=O)N[C@@H](Cc1cnc[nH]1)C(=O)N[C@@H](CCC(N)=O)C(=O)N[C@@H](CCCCN)C(=O)N[C@@H](C)C(=O)N[C@@H](CCC(N)=O)C(=O)N[C@@H](CCC(N)=O)C(=O)N[C@@H](CCCNC(=N)N)C(=O)N[C@@H](CCCCN)C(=O)N[C@@H](CCC(=O)O)C(=O)N[C@@H](CO)C(=O)N[C@@H](CCCCN)C(=O)N[C@@H](CCCCN)C(=O)N1CCC[C@H]1C(=O)N1CCC[C@H]1C(=O)N[C@@H](C)C(=O)N[C@@H](CCCCN)C(=O)N[C@@H](CC(C)C)C(=O)N[C@@H](CCC(N)=O)C(=O)N1CCC[C@H]1C(=O)N[C@@H](CCCNC(=N)N)C(=O)O
